± gives the standard deviation of the averaged measurements.
Experiments:
Assay in all cases: drug sensitivity score (DSS) (DSS score); higher = more sensitive (stronger growth inhibition); extreme values may be limits of the assay
[1] = tested on: Ba/F3 P210-BCR-ABL1 RUNX1wt/wt control (mouse)
Method in brief: (§1)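 A drug sensitivity score summarised each dose-response curve, with luminescence from CellTiter-Glo scaled between vehicle and positive-control wells. Values are the mean of two replicates. The cells were mouse Ba/F3 clones that were CRISPR/Cas9-edited at a target exon or were edited controls, exposed on pre-printed 384-well plates to a 528-compound library at five concentrations spanning a 10,000-fold range. Plates held 10,000 cells per well in RPMI with 10% FBS for 72 h at 37 °C and 5% CO2.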

[2] = tested on: Ba/F3 P210-BCR-ABL1 RUNX1-/- (mouse)
Method in brief: as §1

[3] = tested on: Ba/F3 P210-BCR-ABL1 RUNX1-/mut (mouse)
Method in brief: as §1

SMILES | drug sensitivity score [1] | drug sensitivity score [2] | drug sensitivity score [3]
C[C@H]1CNCCCN1S(=O)(=O)c1cccc2cncc(F)c12 [Ripasudil] | 0 | 0 | 0
C=CC(=O)Nc1cccc(Nc2nc(Nc3ccc(N4CCN(C(C)=O)CC4)cc3OC)ncc2C(F)(F)F)c1 [Rociletinib] | 4.4 ± 0.42 | 8.6 ± 1.6 | 7.45 ± 0.071
O=C(CCCCCCNC(=O)c1cnc(N(c2ccccc2)c2ccccc2)nc1)NO [Rocilinostat] | 6.25 ± 0.071 | 10.2 ± 1.5 | 9.05 ± 2.2
C/C=C1\NC(=O)[C@H]2CSSCC/C=C/[C@H](CC(=O)N[C@H](C(C)C)C(=O)N2)OC(=O)[C@H](C(C)C)NC1=O [Romidepsin] | 29.4 ± 0.42 | 29.85 ± 0.071 | 27.6 ± 2.7
Cc1nc(C(=O)NCC(=O)O)c(O)c2ccc(Oc3ccccc3)cc12 [Roxadustat] | 0 | 0.6 ± 0.85 | 0.95 ± 1.3
CN(C)C[C@@H]1CCn2cc(c3ccccc32)C2=C(C(=O)NC2=O)c2cn(c3ccccc23)CCO1 [Ruboxistaurin] | 7.7 ± 0.99 | 9.7 ± 0.28 | 9.25 ± 2.2
N#CC[C@H](C1CCCC1)n1cc(-c2ncnc3[nH]ccc23)cn1 [Ruxolitinib] | 0 | 2.2 ± 0.71 | 1.45 ± 2
CC(C)N(CCCNC(=O)Nc1ccc(C(C)(C)C)cc1)C[C@H]1O[C@@H](n2cc(Br)c3c(N)ncnc32)[C@H](O)[C@@H]1O [SGC0946] | 0 | 3.45 ± 2.3 | 3.7 ± 5.2
COc1ccc(CCc2nc3cc(-c4c(C)noc4C)ccc3n2C[C@H](C)N2CCOCC2)cc1Cl [SGC-CBP30] | 5.5 ± 0.28 | 10.2 ± 2.8 | 12.7 ± 4.6
CN1CCC(CNc2ccc3ncc(-c4cccc(OC(F)(F)F)c4)n3n2)CC1 [SGI-1776] | 5.2 ± 0.14 | 10.1 ± 0.71 | 9.65 ± 2.2
CN(CC(=O)N(Cc1ccc(C2CCCCC2)cc1)c1ccc(C(=O)O)cc1)S(=O)(=O)c1c(F)c(F)c(F)c(F)c1F [SH-4-54] | 5.1 ± 0.14 | 8.95 ± 1.1 | 8.35 ± 5.2
CCc1c2c(nc3ccc(O)cc13)-c1cc3c(c(=O)n1C2)COC(=O)[C@]3(O)CC [SN-38] | 26.9 ± 0.42 | 33.2 ± 0.99 | 29.1 ± 1.8
Cc1cc2c(C(=O)NC[C@H](C)c3ccccc3)c(O)c(O)cc2c(O)c1-c1c(C)cc2c(C(=O)NC[C@H](C)c3ccccc3)c(O)c(O)cc2c1O [Sabutoclax] | 19.1 ± 0.49 | 21.8 ± 6.7 | 23.5 ± 7.5
CC[C@@H](C(=O)[C@@H](C)[C@@H](O)[C@H](C)[C@@H]1O[C@@H]([C@@H](CC)C(=O)O)CC[C@@H]1C)[C@H]1O[C@]2(C=C[C@@H](O)[C@]3(CC[C@@](C)([C@H]4CC[C@](O)(CC)[C@H](C)O4)O3)O2)[C@H](C)C[C@@H]1C [Salinomycin] | 17 ± 8.3 | 19.6 ± 7.6 | 17.6 ± 10
CC(C)n1nc(-c2ccc3oc(N)nc3c2)c2c(N)ncnc21 [Sapanisertib] | 11.3 ± 0.49 | 16.9 ± 0.35 | 16.6 ± 2.5
CNC(=O)CN1CCC(Oc2cc3c(Nc4cccc(Cl)c4F)ncnc3cc2OC)CC1 [Sapitinib] | 0 | 0.35 ± 0.49 | 0
CC1=C2C[C@H]3[C@@H](CC[C@@H]4C[C@H](NS(C)(=O)=O)CC[C@@]43C)[C@@H]2CC[C@@]2(C1)O[C@@H]1C[C@H](C)CN[C@H]1[C@H]2C [Saridegib] | 0 | 2.3 ± 0.28 | 2.15 ± 3
CC[C@H](CO)Nc1nc(NCc2ccccc2)c2ncn(C(C)C)c2n1 [Seliciclib] | 0 | 1.3 ± 0.14 | 0.4 ± 0.57
